Biological target: T1, purified BACE protein (β-secretase) (Homo sapiens, UniProt P56817)
T1 construct: made in house
Assay: Competitive Radioligand Binding Assay (RLBA)
Settings: β-secretase inhibition; displacement of tritiated Compound A from BACE-coated plates, pH 4.1; read-out: IC50 in vitro
Procedure: Competitive Radioligand Binding Assay (RLBA)
96 well microplates (Optiplate Packard) are coated with purified BACE protein (see e.g. GB 2,385,124: Examples 1 and 2) using a concentration of 1 μg/ml in 30 mM sodium citrate buffer adjusted to pH 5.5. The coating is achieved by incubation of 100 μl/well for 1-3 days at 4° C. The plate is then washed with 2×300 μl/well of 10 mM citrate pH 4.1. To each well 100 μl binding buffer (30 mM citrate, 100 mM NaCl, 0.1% BSA, pH 4.1) is dispensed. The test compound is added in 5 μl from a DMSO stock solution or appropriate dilutions. To this the tracer (tritiated Compound A, see e.g. GB 2,385,124: Example 4) is added in 10 µl/well from a 10 μCi/ml stock solution in binding buffer. After incubation for 1.5-2 hours in a humid chamber at ambient temperature the plate is washed with 2×300 μl/well water and flipped on a dry towel. Following the addition of 50 μl/well Micro-Scint20 (Packard) the plate is sealed and vibrated for 5 seconds. The bound radioactivity is counted on a Topcount (Packard). Total binding is typically between 2000 and 10000 cpm/well depending mainly on the purity and concentration of the BACE protein. Non-specific binding as assessed by competition with >1 μM peptidic inhibitor (Bachem # H-4848) is typically between 30 and 300 cpm/well. The IC-50 values are calculated by Microsoft Excel FIT.

T1 sequence (P56817 46-501): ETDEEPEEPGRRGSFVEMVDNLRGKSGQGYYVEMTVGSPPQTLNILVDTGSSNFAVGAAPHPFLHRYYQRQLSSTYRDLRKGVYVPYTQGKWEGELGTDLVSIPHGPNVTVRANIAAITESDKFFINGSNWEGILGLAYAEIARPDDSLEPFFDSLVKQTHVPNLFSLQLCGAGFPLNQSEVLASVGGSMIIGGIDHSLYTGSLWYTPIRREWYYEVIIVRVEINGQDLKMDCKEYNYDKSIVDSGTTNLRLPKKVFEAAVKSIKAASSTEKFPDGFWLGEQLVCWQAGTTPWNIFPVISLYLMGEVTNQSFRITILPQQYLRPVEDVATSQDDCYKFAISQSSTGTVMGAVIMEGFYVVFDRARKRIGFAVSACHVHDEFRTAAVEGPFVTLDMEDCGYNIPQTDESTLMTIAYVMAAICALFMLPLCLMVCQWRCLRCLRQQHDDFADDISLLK

Structure (SMILES) | IC50 [nM]
CCCN(CCC)C(=O)c1cccc(C(=O)N[C@@H](Cc2ccccc2)P(=O)(O)CC(C)C(=O)Nc2ccccc2)c1 (mixture of isomers) [Compound I-18, [(R)-1-(3-dipropylcarbamoyl-benzoylamino)-2-phenyl-ethyl]-(2-phenylcarbamoyl-propyl)-phosphinic acid] | 10
CCCN(CCC)C(=O)c1cccc(C(=O)N[C@@H](Cc2ccccc2)P(=O)(O)CC(C)C(=O)NCCC(C)C)c1 (mixture of isomers) [Compound I-37, [(R)-1-(3-dipropylcarbamoyl-benzoylamino)-2-phenyl-ethyl]-[2-(3-methyl-butylcarbamoyl)-propyl]-phosphinic acid] | 40
CCCOc1cc(C(=O)N[C@@H](Cc2ccccc2)P(=O)(O)CC(C)C(=O)Nc2ccccc2)cc(N2CCCC2=O)c1 (stereo partly drawn) [Compound I-5, {(R)-1-[3-(2-oxo-pyrrolidin-1-yl)-5-propoxy-benzoylamino]-2-phenyl-ethyl}-(2-phenylcarbamoyl-propyl)-phosphinic acid] | 50
CCCN(CCC)C(=O)c1cccc(C(=O)NC(Cc2ccccc2)P(=O)(O)CC(C(=O)Nc2ccc(C)cc2)C(C)C)c1 (centres unmarked) [Compound I-14, [1-(3-dipropylcarbamoyl-benzoylamino)-2-phenyl-ethyl]-(3-methyl-2-p-tolylcarbamoyl-butyl)-phosphinic acid] | 200
CCCN(CCC)C(=O)c1cccc(C(=O)N[C@@H](Cc2ccccc2)P(=O)(O)CC(C)C(=O)NC2CCCCC2)c1 (stereo partly drawn) [Compound I-42, (2-cyclohexylcarbamoyl-propyl)-[(R)-1-(3-dipropylcarbamoyl-benzoylamino)-2-phenyl-ethyl]-phosphinic acid] | 20

From US7345082B2, “Phosphinic acids” (Hoffmann-La Roche Inc., priority 2003, dated 2008)
